Assay results: patent US20050042716A1, “Allergen inactivating method, allergen inactivating filter, air treating apparatus, virus inactivating agent, virus inactivating method, virus inactivating filter, air conditoning unit and air conditioner” (priority 2003, published 2005)

Experiments:
[1] = system: λ-phage; test: Inactivation test of λ-phage in solution (plaque count on E. coli XL1-Blue MRF′); format: cell-based
[2] = system: M13 phage; test: Inactivation test of M13 phage in solution (plaque count on E. coli JM109); format: cell-based; conditions: 9 M urea, 1 hour
Protocol: This solution was added in the 1.5 mL volume tube to prepare a protease treatment solution. […] This solution was added in the 1.5 mL volume tube to prepare an urea treatment solution. […] This solution was added in the 1.5 mL volume tube to prepare an urea/protease treatment solution. Each solution was incubated at 37° C. for 1 hour. After the incubation, 600 μL of PEG solution (20% PEG6000, 2.5M NaCl) was added, and the solution was allowed to stand in ice for 3 hours. […] After incubating the medium at 37° C. for 5 hours, the number of the plaques appeared was counted to determine pfu. […] Into this solution in the 1.5 mL volume tube, 0, 0.08, 0.8 and 8 μL each of pfu protease (manufactured by Takara Bio Co.) solution was added. […] Into this solution in the 1.5 mL volume tube, 0, 0.08, 0.8 and 8 μL each of pfu protease (manufactured by Takara Bio Co.) solution was added. […] Each treatment solution was incubated at 37° C. for 1 hour. After the incubation, 600 μL of PEG solution (20% PEG6000, 2.5M NaCl) was added, and the solution was allowed to stand in ice for 3 hours. […] After incubating the medium at 37° C. for 5 hours, the number of the plaques appeared was counted to determine pfu. […] After the incubation, 600 μL of PEG solution (20% PEG, 2.5M NaCl) was added, and the solution was allowed to stand in ice for 3 hours. […] After incubating the medium at 37° C. for 5 hours, the number of the plaques appeared was counted to determine pfu for evaluating the infection ability. The inactivation ratio of M13 phage was calculated from the results in Table 10, and is shown in the graph in FIG.

[3] = biological target: cedar antigen Cryj-2 (Cryptomeria japonica, UniProt P43212); test: Electrophoresis of treated cedar antigen Cryj-2; format: biochemical; conditions: 10 μL 5 N HCL per 10 μL Cj-2 solution, 60° C., 60 minutes
[4] = system: mite allergen; test: Mite allergen inactivation in mite extract, detected with DaniScan; format: biochemical
[5] = system: cedar extract; test: Electrophoresis of treated cedar extract (protein staining); format: biochemical
[6] = biological target: Cj-1 allergen (Cryptomeria japonica, UniProt P18632); test: Electrophoresis and Western blotting with Cj-1 antibody; format: biochemical, cedar; conditions: for denaturation of Cj-1 protein (Western band): 5 N HCl, 60° C., 60 minutes
[7] = biological target: cedar antigen Cryj-1 (Cryptomeria japonica, UniProt P18632); test: Electrophoresis of treated cedar antigen Cryj-1; format: biochemical; conditions: 10 μL 5 N HCL per 10 μL Cj-1 solution, 60° C., 60 minutes
[8] = 37° C., 1 hour, pfu protease S final 2%, 9 M urea

Chain of Cj-1 allergen (P18632 22-374): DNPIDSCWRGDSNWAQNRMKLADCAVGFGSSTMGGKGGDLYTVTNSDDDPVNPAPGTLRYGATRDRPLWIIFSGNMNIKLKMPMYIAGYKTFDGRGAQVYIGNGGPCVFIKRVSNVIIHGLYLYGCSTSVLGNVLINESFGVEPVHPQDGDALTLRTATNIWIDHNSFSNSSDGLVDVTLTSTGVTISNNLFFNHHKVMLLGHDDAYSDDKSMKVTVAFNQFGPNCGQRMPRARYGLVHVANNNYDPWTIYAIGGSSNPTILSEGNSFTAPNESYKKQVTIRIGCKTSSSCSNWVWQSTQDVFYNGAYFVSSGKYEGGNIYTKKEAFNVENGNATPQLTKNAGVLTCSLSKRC
Chain of cedar antigen Cryj-2 (P43212 46-433): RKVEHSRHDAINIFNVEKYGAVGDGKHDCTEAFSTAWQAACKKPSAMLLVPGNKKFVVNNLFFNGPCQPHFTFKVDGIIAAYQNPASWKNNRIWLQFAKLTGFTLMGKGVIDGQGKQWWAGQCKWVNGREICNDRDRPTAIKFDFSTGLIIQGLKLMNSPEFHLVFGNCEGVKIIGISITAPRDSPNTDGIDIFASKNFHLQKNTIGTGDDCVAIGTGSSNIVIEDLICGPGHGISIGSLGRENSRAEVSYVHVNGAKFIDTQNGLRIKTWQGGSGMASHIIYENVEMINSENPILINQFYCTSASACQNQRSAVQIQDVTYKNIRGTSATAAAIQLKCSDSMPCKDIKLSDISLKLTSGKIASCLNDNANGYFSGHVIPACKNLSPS
Chain of cedar antigen Cryj-1 (P18632 22-374): as the sequence (P18632 22-374) above

Molecule: NC(N)=O [Urea, urea]
- Infection ability of λ-phage ([1]; 3 M urea, 37° C., treatment time 0 min): 9.4 × 10^7 pfu/ml
- Infection ability of λ-phage ([1]; 3 M urea, 37° C., treatment time 15 min): 1.5 × 10^8 pfu/ml
- Infection ability of λ-phage ([1]; 3 M urea, 37° C., treatment time 60 min): 1.1 × 10^8 pfu/ml
- inactivation of λ-phage (in words) ([1]; 3 M urea, irrespective of the treatment time): not substantially inactivated
- Infection ability of λ-phage ([1]; 9 M urea, 37° C., treatment time 0 min): 4 × 10^6 pfu/ml
- Infection ability of λ-phage by adding 9 M urea ([1]; 9 M urea, 37° C., treatment time 0 min (Table 6)): 8.4 × 10^5 pfu/mL
- Infection ability of λ-phage by adding 9 M urea ([1]; 9 M urea, 37° C., treatment time 7.5 min): 0 pfu/mL
- Infection ability of λ-phage ([1]; 9 M urea, 37° C., treatment time 15 min): 0 pfu/ml
- Infection ability of λ-phage by adding 9 M urea ([1]; 9 M urea, 37° C., treatment time 15 min (Table 6)): 0 pfu/mL
- Infection ability of λ-phage by adding 9 M urea ([1]; 9 M urea, 37° C., treatment time 30 min): 0 pfu/mL
- Infection ability of λ-phage ([1]; 9 M urea, 37° C., treatment time 60 min): 0 pfu/ml
- Infection ability of λ-phage by adding 9 M urea ([1]; 9 M urea, 37° C., treatment time 60 min (Table 6)): 0 pfu/mL
- inactivation of λ-phage (in words) ([1]; 9 M urea, treatment time of 15 minutes or more): completely inactivated
- Infection ability of λ-phage [1, 8]: 0 pfu/mL
- inactivation of λ-phage (in words) [1, 8]: inactivated
- inactivation ratio of λ-phage ([1]; immediately after contacting 9 M urea): about 99.96%
- inactivation ratio of M13 phage ([2]; 37° C.): about 50%
- Infection ability of M13 phage ([2]; protease concentration 0, 37° C.): 6.3 × 10^9
- Infection ability of M13 phage ([2]; 37° C., pfu protease S final 2%): 1.1 × 10^10 pfu/mL

Molecule: Cl [acid, hydrochloric acid]
- denaturation of Cj-2 protein (bands) [3]: most of the cedar allergen Cj-2 protein was denatured
- mite allergen inactivation (DaniScan band) ([4]; 2.5 M hydrochloric acid, 60° C., 60 minutes): most of the allergen is inactivated
- denaturation of cedar proteins (bands) ([5]; 10 μL 5 N HCL per 10 μL cedar preparation, 60° C., 60 minutes): most of the proteins derived from cedar was denatured
- denaturation of Cj-1 protein (Western band) ([6]; Cj-1 solution): most of the cedar antigen Cj-1 protein was denatured
- denaturation of Cj-1 protein (Western band) ([6]; cedar extract): most of the cedar antigen Cj-1 protein was denatured
- denaturation of Cj-1 protein (bands) [7]: most of the cedar allergen Cj-1 protein was denatured

Molecule: [Na+].[OH-] [alkali, sodium hydroxide]
- mite allergen inactivation (DaniScan band) ([4]; 2.5 M sodium hydroxide, 40° C. and 60° C., 10 minutes): inactivated

B1: papain: purified edible papain manufactured by Nagase Chemtechs Co. (protein, UniProt P00784 134-345, looked up)
Papain: IPEYVDWRQKGAVTPVKNQGSCGSCWAFSAVVTIEGIIKIRTGNLNEYSEQELLDCDRRSYGCNGGYPWSALQLVAQYGIHYRNTYPYEGVQRYCRSREKGPYAAKTDGVRQVQPYNEGALLYSIANQPVSVVLEAAGKDFQLYRGGIFVGPCGNKVDHAVAAVGYGPNYILIKNSWGTGWGENGYIRIKRGTGNSYGVCGLYTSSFYPVKN
- decomposition of cedar proteins (bands) ([5]; 3 μL (0.2 g/mL) papain solution, 40° C., 15 minutes): most of the cedar proteins had been decomposed
- inactivation of Cj-1 allergen (Western band) ([6]; cedar extract, 3 μL (0.2 g/mL) papain, 40° C., 15 minutes): completely inactivated
